Data taken from ChEMBL document CHEMBL1201862, “PubChem BioAssay data set” (2004).
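Five compound concentrations were applied to cells in 96-well plates for 48 hours; endpoints were derived by simple linear interpolation of the resulting dose-response curve. The concentration for 50% growth inhibition is given as GI50.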 Calls of active or inactive are those of the source. Cut-off read from the data, not from the text of the source: active = GI50 up to about 1.1 µM and inactive = higher.

Columns and labels:
Experiment in all cases: NCI tumour cell line growth inhibition, 48 h
KM-20L2 = tested on: KM-20L2
SNB-78 = tested on: SNB-78
HOP-18 = tested on: HOP-18
DLD-1 = tested on: DLD-1
M19-MEL = tested on: M19-MEL
LXFL 529 = tested on: LXFL 529
XF498 = tested on: XF498
RXF 631 = tested on: RXF 631
DMS-273 = tested on: DMS-273

Measured: GI50

CCOc1ccc(/N=C/c2cccc3cccnc23)cc1
inactive: KM-20L2 > 100 µM | SNB-78 > 100 µM | HOP-18 > 100 µM | DLD-1 51.4 µM | M19-MEL > 100 µM | LXFL 529 13.2 µM | XF498 > 100 µM | RXF 631 > 100 µM | DMS-273 81.3 µM
